Like-named read-outs stand apart in the source and are kept apart here.

In one test the target is T1, mCB1R (Mus musculus, UniProt P47746).
T1 construct: from tissue; host or cells: brain of male C57BL/6J mice
Put plainly: biochemical. As to conditions: for EC50: pEC50 ± SEM cAMP mCB1R; for Emax: read-out: Emax cAMP mCB1R.

Another test has as its target T2, human NAPE-PLD (Homo sapiens, UniProt Q6IQ20).
T2 construct: Full length human cDNA NAPE-PLD was obtained from Natsuo Ueda; expressed in transfected cells; host or cells: HEK293T (transient), membrane fraction
Put plainly: NAPE-PLD inhibition. It counts as biochemical. As to conditions: for inhibition at 10 µM: read-out: NAPE-PLD % inhibition at 10 µM ± SD. Here is the method:
Full length human cDNA NAPE-PLD was obtained from Natsuo Ueda[58] and cloned into mammalian expression vector pcDNA3.1, containing a C-terminal Flag-tag and genes for ampicillin and neomycin resistance. All plasmids were grown in XL-10 Z-competent cells and prepped (Maxi Prep, Qiagen). Sequence analysis for the confirmation of the sequences was performed at the Leiden Genome Technology Centre.
HEK293T cells (source: Dutch Cancer Institute) were cultured at 37 °C and 7% CO2 in DMEM with glutamax, penicillin (100 μg ml^−1), streptomycin (100 μg ml^−1) and 10% New Born Calf Serum iron supplemented (Hyclone SH30072.03). Cells were passaged twice a week to appropriate confluence. Twenty-four hours before transfection 10^7 cells were seeded on a 15 cm dish. Two hours before transfection, the medium was refreshed. Transfection is performed with PEI in a ratio of 3:1 with human NAPE-PLD or Mock pcDNA3.1Neo, 20 μg per dish. Medium is refreshed after 24 h and cells are harvested after 72 h. Cell suspensions are centrifuged at 1,000g for 10 min, supernatant removed and pellets frozen at −80 °C until further use.
Cell pellets are re-suspended in lysis buffer 1: 20 mM Hepes, 2 mM DTT, 0.25 M sucrose, 1 mM MgCl2, 2.5 U ml^−1 benzonase and incubated 30 min on ice. The cytosolic fraction (supernatant) is separated from the membranes by ultra-centrifugation (32,000 rpm for 30 min 100,000g). The pellet is resuspended in buffer 2: 20 mM Hepes, 2 mM DTT (membrane fraction). All samples are stored at −80 °C. Enzyme concentrations are determined using a Bradford assay.
The membrane protein fraction from transient overexpression of NAPE-PLD in HEK293T cells was diluted to 0.4 mg ml^−1 in assay buffer: 50 mM Tris-HCl (pH 7.5), 0.02% Triton X-100, 150 mM NaCl (ref. [60]). […] Relevant concentrations of compounds are prepared in DMSO. The assay is performed in a dark Greiner 96-well plate, end volume 100 μl. The compound or DMSO is incubated with membrane protein lysate (final concentration 0.04 mg ml^−1) for 30 min at 37 °C. A sample without membrane protein lysate is incorporated for background subtraction. Then, substrate is added (final concentration 1 μM) and the measurement is started immediately on a TECAN infinite M1000 pro at 37 °C (excitation 485 nm, emission 535 nm), scanning every 2 min for 1 h.

Test [1] deals with AEA reuptake in HaCaT cells. The experiment in a line: cells. It counts as cell-based, human. As to conditions: for IC50: read-out: AEA reuptake IC50 (95% CI) HaCaT cells; for AEA reuptake Efficacy (% inhibition) HaCaT cells: from dose-response.
A further test addresses T3, A1 (h) (Homo sapiens, UniProt P30542).
T3 construct: CEREP
T3 sequence (P30542 1-326): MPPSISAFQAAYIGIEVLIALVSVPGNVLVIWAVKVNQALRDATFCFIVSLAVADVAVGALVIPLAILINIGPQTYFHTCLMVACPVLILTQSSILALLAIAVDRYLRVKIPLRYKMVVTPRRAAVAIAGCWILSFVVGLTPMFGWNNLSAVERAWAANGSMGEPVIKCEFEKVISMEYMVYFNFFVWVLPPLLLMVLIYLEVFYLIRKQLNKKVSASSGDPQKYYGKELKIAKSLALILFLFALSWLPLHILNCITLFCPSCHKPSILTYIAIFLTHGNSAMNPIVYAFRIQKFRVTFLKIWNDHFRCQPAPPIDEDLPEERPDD
Put plainly: CEREP panel. Type of test: binding. As to conditions: for inhibition at 10 µM: read-out: % inhibition A1 (h).

A further test addresses T4, GR (h) (Homo sapiens, UniProt P04150).
T4 construct: CEREP (contract assay)
T4 sequence (P04150 1-777): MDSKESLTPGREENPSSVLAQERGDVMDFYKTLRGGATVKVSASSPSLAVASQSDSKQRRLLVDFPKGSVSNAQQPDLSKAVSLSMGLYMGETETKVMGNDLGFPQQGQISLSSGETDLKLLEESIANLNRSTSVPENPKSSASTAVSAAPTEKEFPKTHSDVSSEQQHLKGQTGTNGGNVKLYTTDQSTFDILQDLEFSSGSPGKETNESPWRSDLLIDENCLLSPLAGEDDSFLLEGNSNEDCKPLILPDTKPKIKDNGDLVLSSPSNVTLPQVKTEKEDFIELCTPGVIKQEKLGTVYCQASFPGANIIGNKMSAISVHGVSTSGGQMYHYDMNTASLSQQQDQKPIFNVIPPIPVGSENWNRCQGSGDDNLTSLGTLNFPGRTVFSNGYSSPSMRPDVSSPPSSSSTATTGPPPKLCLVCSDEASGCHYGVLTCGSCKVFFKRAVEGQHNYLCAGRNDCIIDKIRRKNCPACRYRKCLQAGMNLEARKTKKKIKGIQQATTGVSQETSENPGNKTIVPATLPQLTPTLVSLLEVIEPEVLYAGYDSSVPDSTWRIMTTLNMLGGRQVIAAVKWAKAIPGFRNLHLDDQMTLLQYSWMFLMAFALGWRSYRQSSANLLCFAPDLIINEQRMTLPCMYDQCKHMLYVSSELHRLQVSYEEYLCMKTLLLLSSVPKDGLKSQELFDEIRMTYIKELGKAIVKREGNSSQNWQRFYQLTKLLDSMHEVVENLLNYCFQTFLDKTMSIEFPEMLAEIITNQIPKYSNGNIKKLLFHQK
The experiment in a line: CEREP panel. The conditions noted are these: for inhibition at 10 µM: read-out: % inhibition GR (h). It counts as binding.

Another test concerns the target mCB2R (Mus musculus, UniProt P47936). Put plainly: biochemical. Type of test: biochemical. Further details: from tissue; host or cells: spleen of male C57BL/6J mice. As to conditions: for Emax: read-out: Emax cAMP mCB2R.
Another test addresses hCB2R (Homo sapiens, UniProt P34972). Put plainly: biochemical. Type of test: biochemical. Also noted: expressed in transfected cells; host or cells: Flp-In-293 (Invitrogen #R750-07), pcDNA5/FRT. The conditions noted are these: for Emax: read-out: Emax ± SEM GTPγS hCB2R.
The mark [2] stands for this setting: normalized to 10 µM CP55940, negative = inverse agonism.

hCB2R, sequence (P34972 whole entry): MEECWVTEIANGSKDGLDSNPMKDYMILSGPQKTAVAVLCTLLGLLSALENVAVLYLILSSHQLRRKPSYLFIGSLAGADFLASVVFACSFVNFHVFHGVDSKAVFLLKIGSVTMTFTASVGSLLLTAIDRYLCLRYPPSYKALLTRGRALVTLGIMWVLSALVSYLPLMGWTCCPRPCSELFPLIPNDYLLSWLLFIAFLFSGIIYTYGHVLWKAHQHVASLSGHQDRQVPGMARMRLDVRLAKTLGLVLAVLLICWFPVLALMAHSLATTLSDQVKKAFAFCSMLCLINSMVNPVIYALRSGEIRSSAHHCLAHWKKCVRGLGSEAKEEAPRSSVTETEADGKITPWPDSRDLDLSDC
T2 sequence (Q6IQ20 whole entry): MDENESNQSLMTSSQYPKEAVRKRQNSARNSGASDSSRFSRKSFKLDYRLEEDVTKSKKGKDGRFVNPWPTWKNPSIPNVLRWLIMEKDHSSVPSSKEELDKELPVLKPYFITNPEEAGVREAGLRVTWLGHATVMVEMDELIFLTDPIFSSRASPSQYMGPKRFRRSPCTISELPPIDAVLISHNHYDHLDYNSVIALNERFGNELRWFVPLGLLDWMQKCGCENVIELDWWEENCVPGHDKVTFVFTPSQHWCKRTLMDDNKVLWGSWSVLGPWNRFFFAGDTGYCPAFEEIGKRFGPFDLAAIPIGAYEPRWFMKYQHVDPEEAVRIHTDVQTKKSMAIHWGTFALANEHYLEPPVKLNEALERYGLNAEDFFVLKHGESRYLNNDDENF
T1 sequence (P47746 whole entry): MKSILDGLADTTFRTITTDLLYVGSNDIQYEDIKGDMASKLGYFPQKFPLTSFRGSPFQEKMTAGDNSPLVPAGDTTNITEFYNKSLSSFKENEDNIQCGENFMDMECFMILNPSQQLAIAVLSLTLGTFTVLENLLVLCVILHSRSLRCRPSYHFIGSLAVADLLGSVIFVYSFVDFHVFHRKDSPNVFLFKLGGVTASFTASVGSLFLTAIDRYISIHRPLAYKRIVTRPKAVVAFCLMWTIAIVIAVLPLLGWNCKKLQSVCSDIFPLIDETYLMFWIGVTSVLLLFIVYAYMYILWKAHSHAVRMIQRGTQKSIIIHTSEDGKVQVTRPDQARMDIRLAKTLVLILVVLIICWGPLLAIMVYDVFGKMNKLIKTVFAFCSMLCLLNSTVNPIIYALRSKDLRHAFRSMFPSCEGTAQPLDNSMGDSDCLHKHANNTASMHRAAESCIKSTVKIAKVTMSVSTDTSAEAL
mCB2R, sequence (P47936 whole entry): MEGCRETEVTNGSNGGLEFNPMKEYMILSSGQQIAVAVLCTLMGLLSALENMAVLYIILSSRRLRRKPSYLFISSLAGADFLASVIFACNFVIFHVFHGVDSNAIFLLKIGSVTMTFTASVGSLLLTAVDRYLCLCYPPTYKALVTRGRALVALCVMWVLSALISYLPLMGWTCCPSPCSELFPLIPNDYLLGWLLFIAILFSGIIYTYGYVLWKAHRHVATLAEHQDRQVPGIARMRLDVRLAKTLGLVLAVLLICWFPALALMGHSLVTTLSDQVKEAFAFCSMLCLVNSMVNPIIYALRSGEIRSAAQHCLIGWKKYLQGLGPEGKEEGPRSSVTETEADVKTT

On to `CCCCCCC(C)(C)c1ccc([C@@H]2C[C@H](O)CC[C@H]2CCCO)c(O)c1` [CP55940], for which the EC50 at mCB1R is 0.00603 nM; at mCB2R (mouse spleen, read-out: pEC50 ± SEM cAMP mCB2R (converted)), 0.0676 nM. Further, the values for the maximum response (Emax) at mCB1R, at mCB2R and on hCB2R were 100%, 100% and 95 ± 4%, respectively. The inhibition at 10 µM came out at 10 ± 8% on human NAPE-PLD; 13% in test [1] (Homo sapiens, HaCaT, read-out: AEA reuptake % inhibition, effect at 10 µM, HaCaT cells, 10 µM (values marked *)); 21% at A1 (h) (10 µM); 92% on GR (h) (10 µM). Moreover, the IC50 in test [1] (Homo sapiens, HaCaT) is over 10000 nM. Moreover, the “% inhibition GR (h)” value on GR (h) (10 µM) is given as 94%.

In the case of `Cc1ccc2c(c1)Cc1c(C(=O)NN3CCCCC3)nn(-c3ccc(Cl)cc3Cl)c1-2` [Gp-1a], the “pEC50 ± SEM cAMP mCB1R” value on mCB1R (mouse brain) amounted to 5.86 ± 0.42. For the same molecule, the “Emax cAMP mCB1R” value on mCB1R (normalized to 10 µM CP55940) is given as -28%. On human NAPE-PLD, the “NAPE-PLD % inhibition at 10 µM ± SD” value was found to be 3 ± 5%. Further, in test [1], the “AEA reuptake Efficacy (% inhibition) HaCaT cells” value was determined as 90% and the IC50 is 3270 nM. Moreover, the “% inhibition A1 (h)” value on A1 (h) (10 µM) is recorded as 25%. Also, the “% inhibition GR (h)” value at GR (h) (10 µM) is 71%. Also, on mCB2R (10^(pEC50 CB2R-pEC50 CB1R)), the “CB2R Selectivity cAMP (mouse)” value came out at 25 fold. Further, the “pEC50 ± SEM cAMP mCB2R” value at mCB2R (mouse spleen) is 7.25 ± 0.32. Besides, the “Emax cAMP mCB2R” value at mCB2R (normalized to 10 µM CP55940) is -25%. At hCB2R, the “pEC50 ± SEM GTPγS hCB2R” value was 7.09 ± 0.07. For the same molecule, the “Emax ± SEM GTPγS hCB2R” value at hCB2R (setting [2]) is -14 ± 5%.

In the case of `CCCCCCC(C)(C)c1cc(OC)c([C@@H]2C=C(CO)[C@@H]3C[C@H]2C3(C)C)c(OC)c1` [HU308], the EC50 on mCB1R (mouse brain) was over 10000 nM; at mCB2R, 3.72 nM. Besides, the Emax at mCB1R turned out to be 10%; on mCB2R it was 56%; on hCB2R, 97 ± 12%. For the same molecule, the inhibition at 10 µM on human NAPE-PLD came to 2 ± 7%; on A1 (h), 5%; on GR (h), 4%. Further, in test [1] (Homo sapiens, HaCaT), the IC50 amounted to 2210 nM. The “AEA reuptake Efficacy (% inhibition) HaCaT cells” value in test [1] was determined as 69%.

Consider `CCCCCCC(C)(C)c1cc(OC)c(C2=C[C@H]3CC[C@]2(CO)C3(C)C)c(OC)c1` [HU910], for which, at mCB1R (mouse brain), the “pEC50 ± SEM cAMP mCB1R” value is recorded as under 5. The “Emax cAMP mCB1R” value on mCB1R (normalized to 10 µM CP55940) is given as 36%. The “NAPE-PLD % inhibition at 10 µM ± SD” value on human NAPE-PLD is given as 8 ± 13%. Moreover, the “AEA reuptake % inhibition, effect at 10 µM, HaCaT cells” value (“AEA reuptake % inhibition, effect” below) in test [1] (10 µM (values marked *)) stood at 38%. In test [1], the concentration for half-maximal inhibition (IC50) was over 10000 nM. At A1 (h) (10 µM), the “% inhibition A1 (h)” value is listed as 23%. The “% inhibition GR (h)” value at GR (h) (10 µM) is 4%. Besides, the “pEC50 ± SEM cAMP mCB2R” value on mCB2R (mouse spleen) is listed as 8.98 ± 0.38. Also, the “Emax cAMP mCB2R” value on mCB2R (normalized to 10 µM CP55940) amounted to 67%. Besides, the “pEC50 ± SEM GTPγS hCB2R” value at hCB2R was found to be 7.27 ± 0.12. On hCB2R (setting [2]), the “Emax ± SEM GTPγS hCB2R” value was 61 ± 13%.

Turning to `CCCC(C)(C)c1ccc2c(c1)OC(C)(C)[C@@H]1CC=C(C)C[C@@H]21` [JWH133], at mCB1R, the “Emax cAMP mCB1R” value is 11 and the “pEC50 ± SEM cAMP mCB1R” value was under 5. For the same molecule, the “NAPE-PLD % inhibition at 10 µM ± SD” value at human NAPE-PLD worked out at 3 ± 4%. Further, in test [1] (10 µM (values marked *)), the “AEA reuptake % inhibition, effect” value amounted to 39%. For the same molecule, in test [1], the half-inhibitory concentration (IC50) is over 10000 nM. Further, on A1 (h) (10 µM), the “% inhibition A1 (h)” value is reported as -6%. The “% inhibition GR (h)” value at GR (h) (10 µM) was determined as 7%. Also, the “Emax cAMP mCB2R” value on mCB2R was determined as 95. Further, the “pEC50 ± SEM cAMP mCB2R” value on mCB2R (mouse spleen) amounted to 7.75 ± 0.33. Further, on hCB2R, the “Emax ± SEM GTPγS hCB2R” value is 61 ± 15, the “hCB2R Selectivity GTPγS” value came to 0.4 and the “pEC50 ± SEM GTPγS hCB2R” value is given as 6.96 ± 0.35.

Turning to SR144528, at mCB1R (normalized to 10 µM CP55940), the “Emax cAMP mCB1R” value is listed as -39%. In addition, at human NAPE-PLD, the “NAPE-PLD % inhibition at 10 µM ± SD” value is on record as 8 ± 10%. Also, the “AEA reuptake % inhibition, effect” value in test [1] (10 µM (values marked *)) is given as 20%. The IC50 in test [1] was over 10000 nM. On A1 (h) (10 µM), the “% inhibition A1 (h)” value is 4%. Also, the “% inhibition GR (h)” value on GR (h) (10 µM) was determined as 9%. Besides, the “Emax cAMP mCB2R” value at mCB2R (normalized to 10 µM CP55940) was -100%. For the same molecule, at hCB2R (setting [2]), the “Emax ± SEM GTPγS hCB2R” value is reported as -29 ± 2%.

The record behind these values is article PMC5216056 (Nature Communications, 2017).
